# System: HeLa cell
# Assay: HeLa cell apoptosis assay, Cell Death Detection ELISA plus kit
# Type: cell-based
# Design: unit not given here
# Protocol: The following exemplary compounds were evaluated for their effect on a HeLa cell apoptosis assay using the Cell Death Detection ELISA plus kit from Roche Applied Science.
Compound,average (HeLa apoptosis assay) (dose 0.5),average (HeLa apoptosis assay) (dose 2.5),average (HeLa apoptosis assay) (dose 10),average (HeLa apoptosis assay) (dose 25)
Cn1c2c(c3cc(Cl)ccc31)C(C(N)=O)CCC2 (centres unmarked) [Compound 5],1.00,0.97,1.07,0.91
Oc1ccc(/C=C/c2cc(O)cc(O)c2)cc1 [Resveratol],0.83,0.84,1.01,0.56
